Reference: the kinase profiling compilation of Christmann-Franck et al. (2016)

Columns and labels:
Assay in all cases: Caliper, Mobility shift assay off-chip
[1] = molecular target: ABL1 (human) (UniProt P00519)
[2] = tested on: ABL1 (human), P00519 [T315I]
[3] = molecular target: AKT2 (human) (UniProt P31751)
[4] = molecular target: CDK3 CCNE1 (human) (UniProt P24864+Q00526)
[5] = molecular target: CDK6 CCND3 (human) (UniProt Q00534+P30281)
[6] = molecular target: CSF1R (human) (UniProt P07333)
[7] = molecular target: DAPK2 (human) (UniProt Q9UIK4)
Sequence of DAPK2 (human) (Q9UIK4 whole entry, looked up): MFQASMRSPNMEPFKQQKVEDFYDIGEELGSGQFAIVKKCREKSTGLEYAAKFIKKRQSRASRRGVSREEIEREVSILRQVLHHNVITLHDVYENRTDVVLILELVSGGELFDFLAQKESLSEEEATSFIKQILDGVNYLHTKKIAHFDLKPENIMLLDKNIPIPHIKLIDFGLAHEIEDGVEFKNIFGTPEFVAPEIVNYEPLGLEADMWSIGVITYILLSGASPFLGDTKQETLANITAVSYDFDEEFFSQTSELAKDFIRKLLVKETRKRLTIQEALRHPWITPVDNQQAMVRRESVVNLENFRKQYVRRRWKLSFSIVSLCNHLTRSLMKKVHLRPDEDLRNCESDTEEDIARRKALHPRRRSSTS

[8] = molecular target: DYRK2 (human) (UniProt Q92630)
Sequence of DYRK2 (human) (Q92630 whole entry, looked up): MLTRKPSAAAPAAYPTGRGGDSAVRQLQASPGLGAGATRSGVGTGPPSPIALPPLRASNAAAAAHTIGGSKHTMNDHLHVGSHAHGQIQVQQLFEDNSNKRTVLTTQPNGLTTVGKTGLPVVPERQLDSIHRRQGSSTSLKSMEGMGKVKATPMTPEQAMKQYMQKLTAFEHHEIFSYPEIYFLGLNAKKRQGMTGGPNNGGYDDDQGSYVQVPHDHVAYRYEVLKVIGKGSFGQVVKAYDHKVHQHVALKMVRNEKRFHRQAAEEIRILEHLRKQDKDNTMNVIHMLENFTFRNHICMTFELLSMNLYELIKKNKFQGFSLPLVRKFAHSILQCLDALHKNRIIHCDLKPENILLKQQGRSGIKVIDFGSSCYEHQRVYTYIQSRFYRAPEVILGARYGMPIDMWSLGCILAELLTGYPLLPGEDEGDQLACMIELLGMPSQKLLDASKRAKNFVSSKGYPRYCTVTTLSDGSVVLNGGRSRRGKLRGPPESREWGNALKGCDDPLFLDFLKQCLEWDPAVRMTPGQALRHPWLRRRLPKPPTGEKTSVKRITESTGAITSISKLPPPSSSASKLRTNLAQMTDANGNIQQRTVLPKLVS

[9] = molecular target: EGFR (human) (UniProt P00533)
[10] = molecular target: EPHB4 (human) (UniProt P54760)
[11] = molecular target: FER (human) (UniProt P16591)
[12] = molecular target: FLT3 (human) (UniProt P36888)
[13] = molecular target: LCK (human) (UniProt P06239)
[14] = molecular target: MAP2K6 (human) (UniProt P52564)
[15] = molecular target: MAP2K7 (human) (UniProt O14733)
[16] = molecular target: MAPK9 (human) (UniProt P45984)
Sequence of MAPK9 (human) (P45984 whole entry, looked up): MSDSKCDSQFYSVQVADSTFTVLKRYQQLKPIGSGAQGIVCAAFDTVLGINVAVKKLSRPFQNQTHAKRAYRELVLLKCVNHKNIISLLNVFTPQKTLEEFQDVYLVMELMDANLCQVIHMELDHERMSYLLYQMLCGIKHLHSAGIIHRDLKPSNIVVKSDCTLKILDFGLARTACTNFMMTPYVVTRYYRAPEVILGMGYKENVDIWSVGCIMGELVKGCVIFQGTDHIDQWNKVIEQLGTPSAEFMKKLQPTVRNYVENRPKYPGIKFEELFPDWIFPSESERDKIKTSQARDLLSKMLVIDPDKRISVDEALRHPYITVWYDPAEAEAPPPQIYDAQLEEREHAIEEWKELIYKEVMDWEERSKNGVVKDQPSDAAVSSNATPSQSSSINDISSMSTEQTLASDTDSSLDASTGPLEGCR

[17] = molecular target: MAPKAPK3 (human) (UniProt Q16644)
Sequence of MAPKAPK3 (human) (Q16644 whole entry, looked up): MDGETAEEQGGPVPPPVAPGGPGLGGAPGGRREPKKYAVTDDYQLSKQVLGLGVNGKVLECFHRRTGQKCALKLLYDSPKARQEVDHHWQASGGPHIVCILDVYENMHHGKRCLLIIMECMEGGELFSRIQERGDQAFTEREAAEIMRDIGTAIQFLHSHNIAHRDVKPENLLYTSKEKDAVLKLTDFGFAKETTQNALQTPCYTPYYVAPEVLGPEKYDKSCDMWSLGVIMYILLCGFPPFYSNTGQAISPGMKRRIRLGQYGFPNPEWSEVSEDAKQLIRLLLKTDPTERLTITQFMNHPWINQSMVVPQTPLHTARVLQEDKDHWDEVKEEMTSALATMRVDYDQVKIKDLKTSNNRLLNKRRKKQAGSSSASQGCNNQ

[18] = molecular target: PDGFRA (human) (UniProt P16234)
Sequence of PDGFRA (human) (P16234 whole entry, looked up): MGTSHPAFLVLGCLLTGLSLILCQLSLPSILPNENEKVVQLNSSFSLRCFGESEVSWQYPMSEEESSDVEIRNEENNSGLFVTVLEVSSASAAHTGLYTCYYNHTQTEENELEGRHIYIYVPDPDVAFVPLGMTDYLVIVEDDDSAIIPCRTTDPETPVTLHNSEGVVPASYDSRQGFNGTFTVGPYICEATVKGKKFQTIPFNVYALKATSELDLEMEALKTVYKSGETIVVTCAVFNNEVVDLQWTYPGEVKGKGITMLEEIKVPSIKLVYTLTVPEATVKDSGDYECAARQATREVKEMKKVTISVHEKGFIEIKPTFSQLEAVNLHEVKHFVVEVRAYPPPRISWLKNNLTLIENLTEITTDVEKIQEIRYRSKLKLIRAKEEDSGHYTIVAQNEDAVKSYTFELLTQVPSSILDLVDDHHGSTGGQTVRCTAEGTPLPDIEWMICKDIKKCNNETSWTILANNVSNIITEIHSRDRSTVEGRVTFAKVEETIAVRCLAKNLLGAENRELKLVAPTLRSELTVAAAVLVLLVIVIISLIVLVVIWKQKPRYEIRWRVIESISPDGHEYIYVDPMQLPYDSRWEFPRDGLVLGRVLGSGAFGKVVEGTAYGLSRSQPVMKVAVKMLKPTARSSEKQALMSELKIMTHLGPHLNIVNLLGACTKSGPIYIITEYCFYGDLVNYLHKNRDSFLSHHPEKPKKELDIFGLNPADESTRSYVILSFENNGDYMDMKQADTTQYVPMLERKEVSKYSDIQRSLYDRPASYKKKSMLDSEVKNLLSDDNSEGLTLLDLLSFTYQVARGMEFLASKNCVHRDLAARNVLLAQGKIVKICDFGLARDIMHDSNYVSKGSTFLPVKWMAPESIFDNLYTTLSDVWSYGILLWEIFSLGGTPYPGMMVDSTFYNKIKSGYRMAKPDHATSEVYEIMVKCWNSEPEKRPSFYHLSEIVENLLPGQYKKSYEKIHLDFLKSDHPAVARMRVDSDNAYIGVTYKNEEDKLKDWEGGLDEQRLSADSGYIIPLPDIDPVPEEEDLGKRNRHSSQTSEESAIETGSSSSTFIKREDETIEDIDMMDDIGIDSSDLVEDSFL

[19] = molecular target: PDGFRB (human) (UniProt P09619)
[20] = molecular target: PKN2 (human) (UniProt Q16513)
[21] = molecular target: PRKACA (human) (UniProt P17612)
[22] = molecular target: PRKCE (human) (UniProt Q02156)
[23] = molecular target: PRKCZ (human) (UniProt Q05513)
[24] = molecular target: SGK2 (human) (UniProt Q9HBY8)
[25] = molecular target: STK10 (human) (UniProt O94804)
[26] = molecular target: STK17A (human) (UniProt Q9UEE5)
[27] = molecular target: STK3 (human) (UniProt Q13188)
[28] = molecular target: TSSK1B (human) (UniProt Q9BXA7)
[29] = molecular target: MELK (human) (UniProt Q14680)
[30] = molecular target: PTK2 (human) (UniProt Q05397)
Sequence of PTK2 (human) (Q05397 whole entry, looked up): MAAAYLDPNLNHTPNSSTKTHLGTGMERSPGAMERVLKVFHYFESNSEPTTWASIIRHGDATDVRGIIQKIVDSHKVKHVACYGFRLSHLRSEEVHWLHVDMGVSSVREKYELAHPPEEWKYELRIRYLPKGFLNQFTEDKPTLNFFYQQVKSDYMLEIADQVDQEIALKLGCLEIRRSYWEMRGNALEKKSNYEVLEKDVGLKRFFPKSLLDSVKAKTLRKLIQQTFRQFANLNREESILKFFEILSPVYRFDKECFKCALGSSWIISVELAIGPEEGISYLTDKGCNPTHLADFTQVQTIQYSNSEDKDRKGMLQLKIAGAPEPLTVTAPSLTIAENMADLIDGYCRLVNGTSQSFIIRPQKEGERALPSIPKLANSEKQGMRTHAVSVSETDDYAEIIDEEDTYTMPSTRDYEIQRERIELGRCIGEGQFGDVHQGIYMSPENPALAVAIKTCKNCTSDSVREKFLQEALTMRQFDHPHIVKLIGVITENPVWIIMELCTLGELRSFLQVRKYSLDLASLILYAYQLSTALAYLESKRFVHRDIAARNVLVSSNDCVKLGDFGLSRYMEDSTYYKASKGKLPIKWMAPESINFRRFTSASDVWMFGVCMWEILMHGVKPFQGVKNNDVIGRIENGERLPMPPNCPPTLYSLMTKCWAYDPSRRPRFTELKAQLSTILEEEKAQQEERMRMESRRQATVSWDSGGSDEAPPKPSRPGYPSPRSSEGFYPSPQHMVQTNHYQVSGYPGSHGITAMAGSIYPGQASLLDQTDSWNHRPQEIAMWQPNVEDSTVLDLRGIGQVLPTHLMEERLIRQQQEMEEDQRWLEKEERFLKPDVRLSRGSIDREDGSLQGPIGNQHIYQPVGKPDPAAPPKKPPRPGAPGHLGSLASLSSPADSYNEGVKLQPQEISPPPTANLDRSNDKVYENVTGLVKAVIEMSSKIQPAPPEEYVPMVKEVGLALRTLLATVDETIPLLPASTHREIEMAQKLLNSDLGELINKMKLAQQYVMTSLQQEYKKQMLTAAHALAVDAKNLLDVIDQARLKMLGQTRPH

[31] = molecular target: TNK2 (human) (UniProt Q07912); conditions: compound 10.0 µM
[32] = molecular target: CDC42BPA (human) (UniProt Q5VT25)
[33] = molecular target: CDK9 CCNT1 (human) (UniProt O60563+P50750)
[34] = molecular target: DAPK1 (human) (UniProt P53355)
[35] = molecular target: EPHA8 (human) (UniProt P29322)
[36] = molecular target: GCK (human) (UniProt Q12851)
[37] = molecular target: HIPK3 (human) (UniProt Q9H422)
[38] = molecular target: NEK3 (human) (UniProt P51956)
[39] = molecular target: STK24 (human) (UniProt Q9Y6E0)
[40] = molecular target: STK33 (human) (UniProt Q9BYT3)
[41] = molecular target: TAOK3 (human) (UniProt Q9H2K8)

Sequence of AKT2 (human) (P31751 whole entry, looked up): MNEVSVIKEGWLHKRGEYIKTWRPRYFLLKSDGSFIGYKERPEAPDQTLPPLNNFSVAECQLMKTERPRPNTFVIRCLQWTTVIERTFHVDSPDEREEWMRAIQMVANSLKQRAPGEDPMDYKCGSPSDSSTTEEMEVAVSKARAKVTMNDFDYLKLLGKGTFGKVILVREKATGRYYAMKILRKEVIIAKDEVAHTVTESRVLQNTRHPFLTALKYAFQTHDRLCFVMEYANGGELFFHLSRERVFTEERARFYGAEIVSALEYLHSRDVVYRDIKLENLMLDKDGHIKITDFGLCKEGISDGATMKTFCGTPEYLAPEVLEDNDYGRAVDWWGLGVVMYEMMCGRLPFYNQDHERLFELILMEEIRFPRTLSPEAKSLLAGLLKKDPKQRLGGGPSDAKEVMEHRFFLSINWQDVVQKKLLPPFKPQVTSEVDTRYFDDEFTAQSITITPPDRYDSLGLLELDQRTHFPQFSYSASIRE
Sequence of CDK6 CCND3 (human) (P30281 whole entry, looked up): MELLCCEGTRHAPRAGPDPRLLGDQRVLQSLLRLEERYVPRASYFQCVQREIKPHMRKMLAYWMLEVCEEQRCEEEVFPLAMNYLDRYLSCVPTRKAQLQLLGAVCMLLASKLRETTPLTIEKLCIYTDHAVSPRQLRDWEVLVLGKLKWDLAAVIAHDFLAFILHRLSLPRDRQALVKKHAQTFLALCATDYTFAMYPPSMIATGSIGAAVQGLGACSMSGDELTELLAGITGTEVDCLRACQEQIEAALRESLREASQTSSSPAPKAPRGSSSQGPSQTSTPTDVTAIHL
Sequence of CDK6 CCND3 (human) (Q00534 whole entry, looked up): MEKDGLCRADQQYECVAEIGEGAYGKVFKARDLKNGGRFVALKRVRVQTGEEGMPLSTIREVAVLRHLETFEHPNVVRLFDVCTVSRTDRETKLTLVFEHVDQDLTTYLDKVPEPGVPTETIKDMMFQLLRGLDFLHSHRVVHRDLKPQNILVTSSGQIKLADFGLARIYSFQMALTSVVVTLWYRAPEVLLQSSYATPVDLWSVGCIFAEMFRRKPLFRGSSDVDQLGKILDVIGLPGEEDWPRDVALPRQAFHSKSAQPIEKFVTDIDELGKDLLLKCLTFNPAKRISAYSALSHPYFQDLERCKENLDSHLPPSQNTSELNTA

Cc1n[nH]c2c1c(=O)n(CCCN)c1ccc(Cl)cc21
residual activity ([1]; compound 1.0 µM): 113%
residual activity ([2]; compound 1.0 µM): 86%
residual activity ([3]; compound 1.0 µM): 94%
residual activity ([4]; compound 1.0 µM): 96%
residual activity ([5]; compound 1.0 µM): 106%
residual activity ([6]; compound 1.0 µM): 55%
residual activity ([7]; compound 1.0 µM): 90%
residual activity ([8]; compound 1.0 µM): 99%
residual activity ([9]; compound 1.0 µM): 110%
residual activity ([10]; compound 1.0 µM): 84%
residual activity ([11]; compound 1.0 µM): 104%
residual activity ([12]; compound 1.0 µM): 25%
residual activity ([13]; compound 1.0 µM): 82%
residual activity ([14]; compound 1.0 µM): 106%
residual activity ([15]; compound 1.0 µM): 103%
residual activity ([16]; compound 1.0 µM): 95%
residual activity ([17]; compound 1.0 µM): 105%
residual activity ([18]; compound 1.0 µM): 110%
residual activity ([19]; compound 1.0 µM): 108%
residual activity ([20]; compound 1.0 µM): 78%
residual activity ([21]; compound 1.0 µM): 74%
residual activity ([22]; compound 1.0 µM): 90%
residual activity ([23]; compound 1.0 µM): 97%
residual activity ([24]; compound 1.0 µM): 70%
residual activity ([25]; compound 1.0 µM): 81%
residual activity ([26]; compound 1.0 µM): 23%
residual activity ([27]; compound 1.0 µM): 69%
residual activity ([28]; compound 1.0 µM): 24%

CC(C)(C)c1nc2c3ccc(F)cc3c3c(=O)[nH]ccc3c2[nH]1
residual activity ([9]; compound 10.0 µM): 75%
residual activity ([12]; compound 10.0 µM): 25%
residual activity ([29]; compound 10.0 µM): 6%
residual activity ([30]; compound 10.0 µM): 93%
residual activity [31]: 66%

COc1ccc(C#Cc2ccc3ncc4ncn(-c5ccc(CCN)cc5)c4c3c2)cc1
residual activity ([1]; compound 10.0 µM): 73%
residual activity ([2]; compound 10.0 µM): 62%
residual activity ([3]; compound 10.0 µM): 15%
residual activity ([32]; compound 10.0 µM): 85%
residual activity ([4]; compound 10.0 µM): 84%
residual activity ([5]; compound 10.0 µM): 103%
residual activity ([33]; compound 10.0 µM): 126%
residual activity ([6]; compound 10.0 µM): 17%
residual activity ([34]; compound 10.0 µM): 50%
residual activity ([7]; compound 10.0 µM): 85%
residual activity ([8]; compound 10.0 µM): 86%
residual activity ([9]; compound 10.0 µM): 71%
residual activity ([35]; compound 10.0 µM): 91%
residual activity ([10]; compound 10.0 µM): 83%
residual activity ([11]; compound 10.0 µM): 14%
residual activity ([12]; compound 10.0 µM): 8%
residual activity ([36]; compound 10.0 µM): 17%
residual activity ([37]; compound 10.0 µM): 90%
residual activity ([13]; compound 10.0 µM): 65%
residual activity ([14]; compound 10.0 µM): 33%
residual activity ([15]; compound 10.0 µM): 30%
residual activity ([16]; compound 10.0 µM): 77%
residual activity ([17]; compound 10.0 µM): 84%
residual activity ([29]; compound 10.0 µM): 13%
residual activity ([38]; compound 10.0 µM): 88%
residual activity ([18]; compound 10.0 µM): 79%
residual activity ([19]; compound 10.0 µM): 77%
residual activity ([20]; compound 10.0 µM): 13%
residual activity ([21]; compound 10.0 µM): 51%
residual activity ([22]; compound 10.0 µM): 81%
residual activity ([23]; compound 10.0 µM): 85%
residual activity ([30]; compound 10.0 µM): 76%
residual activity ([24]; compound 10.0 µM): 26%
residual activity ([25]; compound 10.0 µM): 18%
residual activity ([26]; compound 10.0 µM): 15%
residual activity ([39]; compound 10.0 µM): 106%
residual activity ([27]; compound 10.0 µM): 104%
residual activity ([40]; compound 10.0 µM): 58%
residual activity ([41]; compound 10.0 µM): 66%
residual activity ([28]; compound 10.0 µM): 99%

O=C(NCCCNc1nc(Nc2cccc(NC(=O)N3CCCC3)c2)ncc1I)c1cccs1
residual activity ([1]; compound 1.0 µM): 82%
residual activity ([2]; compound 1.0 µM): 113%
residual activity ([3]; compound 1.0 µM): 98%
residual activity ([32]; compound 1.0 µM): 97%
residual activity ([4]; compound 1.0 µM): 89%
residual activity ([5]; compound 1.0 µM): 86%
residual activity ([33]; compound 1.0 µM): 70%
residual activity ([6]; compound 1.0 µM): 86%
residual activity ([34]; compound 1.0 µM): 91%
residual activity ([7]; compound 1.0 µM): 100%
residual activity ([8]; compound 1.0 µM): 97%
residual activity ([9]; compound 1.0 µM): 109%
residual activity ([35]; compound 1.0 µM): 106%
residual activity ([10]; compound 1.0 µM): 110%
residual activity ([11]; compound 1.0 µM): 129%
residual activity ([12]; compound 1.0 µM): 9%
residual activity ([36]; compound 1.0 µM): 13%
residual activity ([37]; compound 1.0 µM): 107%
residual activity ([13]; compound 1.0 µM): 76%
residual activity ([14]; compound 1.0 µM): 108%
residual activity ([15]; compound 1.0 µM): 106%
residual activity ([16]; compound 1.0 µM): 84%
residual activity ([17]; compound 1.0 µM): 107%
residual activity ([29]; compound 1.0 µM): 53%
residual activity ([38]; compound 1.0 µM): 99%
residual activity ([18]; compound 1.0 µM): 86%
residual activity ([19]; compound 1.0 µM): 97%
residual activity ([20]; compound 1.0 µM): 63%
residual activity ([21]; compound 1.0 µM): 77%
residual activity ([22]; compound 1.0 µM): 84%
residual activity ([23]; compound 1.0 µM): 107%
residual activity ([30]; compound 1.0 µM): 80%
residual activity ([24]; compound 1.0 µM): 94%
residual activity ([25]; compound 1.0 µM): 87%
residual activity ([26]; compound 1.0 µM): 3%
residual activity ([39]; compound 1.0 µM): 195%
residual activity ([27]; compound 1.0 µM): 119%
residual activity ([40]; compound 1.0 µM): 82%
residual activity ([41]; compound 1.0 µM): 10%
residual activity ([28]; compound 1.0 µM): 99%
